The text below walks through data of patent publication US4851221A, “Liquid calcium supplementation from readily soluble mixtures of calcium compound and citric acid” (Mission Pharmacal Company, priority 1986, dated 1989).

Structures can show the parent of a compound that is named as a salt.

For data set [1] the following is noted: cited from earlier work.
For data set [2] the following is noted: cited from earlier work. The source holds these as a separate data set.
Data set [3] can be described thus: blood pressure in essential hypertension. Format: in vivo. The conditions noted are these: 800 mg calcium/day.
For data set [4] the following is noted: during treatment; cited from earlier work.
A short description of data set [5]: indirect method of oral calcium loading: increment in urinary calcium. Format: in vivo. The conditions noted are these: second two hours after oral 500 mg calcium; 10 normal subjects; mean ± SD; ** p < 0.01 vs tricalcium dicitrate (pre-mixes 1.5 and 1.25). On the procedure:
(§1) The pre-mixes yielded greater absorbability of calcium than tricalcium dicitrate. […] The calcium absorption was also measured more directly from the recovery of radiocalcium after taking labeled calcium preparations in 6 normal subjects.
This indirect measure of calcium absorption was greatest for the pre-mix with a calcium/citrate molar ratio of 1.25 than for other pre-mixes.

Data set [6] is described as follows: radiocalcium absorption (fecal recovery of radioactive calcium). The data set is classed as in vivo. Conditions: 6 normal subjects; oral radiocalcium-labeled; mean ± SD; * p < 0.05 vs tricalcium dicitrate (pre-mix 1.25). The protocol:
as §1

For data set [7] the following is noted: oral; comparable amount; cited from earlier work.
For data set [8] the following is noted: patients with absorptive hypercalciuria; cited from earlier work.
The conditions of data set [9]: in vivo; cited from earlier work.

As to `CC#C[C@]1(O)CC[C@H]2[C@@H]3CCc4cc(O)ccc4[C@H]3CC[C@@]21C` [estrogen], the “prevention of further bone losses” value in [1] (Recker et al., osteoporosis prone postmenopausal women) was “may be prevented by estrogen treatment”.

With `O=C(O)CC(O)(CC(=O)O)C(=O)O` [calcium citrate], the serum phosphate concentration result in data set [2] (2 g calcium/day, patients with renal failure, McDonald et al.) is “effective in restoring normal serum phosphate concentration”.

Turning to `O=C(O)O` [calcium carbonate], the “effect on blood pressure” value in [3] is “Neither calcium carbonate nor tricalcium dicitrate (800 mg calcium/day) was effective in lowering blood pressure”. In addition, the urinary citrate change result in data set [4] is “not during calcium carbonate therapy”. Also, the “prevention of vertebral bone loss” value in data set [1] (Christiansen et al., postmenopausal women) is “ineffective in preventing vertebral bone loss”. Further, the “absorption of ingested phosphate” value in data set [2] (3-20 g calcium/day, Clarkson et al.) is given as “prevent the absorption of ingested phosphate”.

As for `O=C(O)CC(O)(CC(=O)O)C(=O)O` [Tricalcium Dicitrate, tricalcium dicitrate], the “Increment in Urinary Calcium” value in data set [5] is listed as 0.087 ± 0.087 mg calcium/100 ml glomerular f. The “Calcium Absorption” value in [6] worked out at 19.1 ± 6.9%. Moreover, the “effect on blood pressure” value in data set [3] is listed as “Neither calcium carbonate nor tricalcium dicitrate (800 mg calcium/day) was effective in lowering blood pressure”. Under “1.5-2.75 g calcium/day, preliminary data”, the control of hyperphosphatemia entry was “satisfactory control of hyperphosphatemia could be achieved in the majority of patients”. Besides, where the note is “after 8 weeks of treatment, p< 0.05, 1.5-2.75 g calcium/day”, the “serum aluminum concentration after treatment” value worked out at 79 ng/mL. Also, for the setting “before treatment”, the “serum aluminum concentration before treatment” value was found to be 127 ng/mL. Also, the urinary citrate change result in data set [4] is recorded as “Urinary citrate rose significantly during calcium citrate treatment”. Also, in data set [7], the “calcium absorbability versus calcium carbonate” value is listed as “more calcium was absorbable from calcium citrate than from a comparable amount of calcium carbonate”.

Turning to `O=C(O)[C@H](O)[C@@H](O)[C@H](O)[C@H](O)CO` [calcium gluconate], in data set [8], the “urinary calcium / activity product ratio (calcium oxalate saturation)” value is “increased urinary calcium, leading to an increased activity product ratio”.

For `[OH][Al]([OH])[OH]` [aluminum hydroxide], the “aluminum accumulation / osteomalacia” value in [9] was “aluminum accumulation in the body causing a vitamin D resistant osteomalacia”.
